Laboratory results: patent publication US20240115470A1, “METHYL-FLUORO-HYDROXYBENZOATES IN CONSUMER PRODUCTS” (GIVAUDAN SA, priority 2020, published 2024)

Key:
[1] = Assessment of the odor profile on smelling strips by panellists, compared to methyl salicylate; conditions: for Odor description: compound @10 wt % in polyethylene glycol, freshly dipped on smelling strips, compared to methyl salicylate; for odor profile compared to methyl salicylate (summary statement) / sweet aspect of odor profile: general statement in description
Procedure: A 10 wt % solution of the purified samples of Example 1 were prepared (compound @10 wt % in polyethylene glycol). The odor profile was assessed freshly dipped on smelling strips.
Panellists have been asked to provide an odor description as compared to methyl salicylate.

[2] = GC-odor threshold concentration (gas chromatograph with sniff port, panel of trained evaluators); conditions: for odor threshold concentration (relative): relative values, identical conditions, GC sniff port; for odor threshold concentration compared to methyl salicylate and other methyl-fluoro-hydroxybenzoates (in words): general statement in description
Procedure: Definition: The odour threshold concentration is defined as the lowest concentration of the vapour of an odorant material in the air which can be detected by smell and can be measured by standard methods known in the art.
According to standard procedures known to the person skilled in the art, threshold concentrations for volatile perfumery compounds are determined on a gas chromatograph equipped with a sniff port by a panel of trained evaluators. The lowest concentration smelled by each panelist is recorded as the individual threshold concentration expressed in ng (absolute amount of compound delivered at the sniff port).
Under identical conditions the odor threshold concentration for […]

[3] = Light floral cologne accord, replacement of 4 parts DPG; conditions: 4 parts DPG of 1000 replaced by the compound
Source text: The accord above represents a light floral cologne accord, suitable for fine perfumery at a dosage of e.g. 5 weight %.
Without methyl salicylate, the accord lacks initial freshness and neutrality on the top note.
Thus an accord was obtained which compensates the effects normally achieved by the presence of methyl salicylate, thus a useful compensation of methyl salicylate is obtained.

[4] = Replacement of methyl salicylate in wintergreen flavor formulation for toothpaste; conditions: 20 parts methyl salicylate replaced by 0.2 parts compound and 19.8 parts PG
Source text: The formulation above is a typical wintergreen type flavor suitable for the use in toothpaste products, at a dosage of, e.g. 1.2 wt %.

[5] = Replacement of methyl salicylate in wintergreen flavor formulation for mouthwash; conditions: 20 parts methyl salicylate replaced by 0.2 parts compound and 19.8 parts PG
Source text: The formulation above is a typical wintergreen type flavor suitable for the use in mouthwash products, at a dosage of, e.g. 0.3 wt %.

COC(=O)c1cccc(F)c1O [methyl 3-fluoro-2-hydroxybenzoate, reference compound]
Odor description [1]: Medicinal note, technical
odor threshold concentration (relative) [2]: 42

COC(=O)c1c(O)cccc1F [methyl 2-fluoro-6-hydroxybenzoate]
Odor description [1]: Sweetness, elements of wintergreen,
odor profile compared to methyl salicylate (summary statement) [1]: very similar to methyl salicylate
sweet aspect of odor profile [1]: possessing these sweet aspect
odor threshold concentration compared to methyl salicylate and other methyl-fluoro-hydroxybenzoates (in words) [2]: surprisingly low
odor threshold concentration (relative) [2]: 1

COC(=O)c1cc(F)ccc1O [methyl 5-fluoro-2-hydroxybenzoate, reference compound]
Odor description [1]: less sweetness, methyl salicylate character
odor threshold concentration (relative) [2]: 36

COC(=O)c1ccccc1O [methyl 2-hydroxybenzoate, reference compound]
odor threshold concentration (relative) [2]: 22
olfactory effect on accord [3]: helps to reinforce the fresh, transparent, natural top note

COC(=O)c1ccc(F)cc1O [methyl 4-fluoro-2-hydroxybenzoate]
Odor description [1]: Wintergreen, typical methyl salicylate
odor profile compared to methyl salicylate (summary statement) [1]: very similar to methyl salicylate
sweet aspect of odor profile [1]: possessing these sweet aspect
odor threshold concentration compared to methyl salicylate and other methyl-fluoro-hydroxybenzoates (in words) [2]: surprisingly low
odor threshold concentration (relative) [2]: 4
odor threshold concentration, times lower than methyl 3-fluoro-2-hydroxybenzoate ([2]; versus methyl 3-fluoro-2-hydroxybenzoate): more than 10 times
odor threshold concentration, times lower than methyl salicylate ([2]; versus methyl salicylate): more than 5 times
flavor profile after replacement of methyl salicylate [4]: profile with very similar characteristics
flavor profile after replacement of methyl salicylate [5]: profile with very similar characteristics
olfactory effect on accord [3]: fresh and green natural effect on the top note
